According to patent US12336981B2, “Compounds and compositions for the inhibition of NAMPT” (Valo Health, Inc., priority 2010, dated 2025):
pIC50: −log10 of the molar value. Read-outs that look alike come from different tables or passages of the source.

Assays:
NAMPT = target: T1, NAMPT (Homo sapiens, UniProt P43490); experiment: Biochemical inhibition assay: NAMPT enzymatic reaction, NMN quantified by mass spectrometry; settings: read-out: Biochem IC50
T1 construct: His tag; host or cells: E. coli
T1 sequence (P43490 whole entry): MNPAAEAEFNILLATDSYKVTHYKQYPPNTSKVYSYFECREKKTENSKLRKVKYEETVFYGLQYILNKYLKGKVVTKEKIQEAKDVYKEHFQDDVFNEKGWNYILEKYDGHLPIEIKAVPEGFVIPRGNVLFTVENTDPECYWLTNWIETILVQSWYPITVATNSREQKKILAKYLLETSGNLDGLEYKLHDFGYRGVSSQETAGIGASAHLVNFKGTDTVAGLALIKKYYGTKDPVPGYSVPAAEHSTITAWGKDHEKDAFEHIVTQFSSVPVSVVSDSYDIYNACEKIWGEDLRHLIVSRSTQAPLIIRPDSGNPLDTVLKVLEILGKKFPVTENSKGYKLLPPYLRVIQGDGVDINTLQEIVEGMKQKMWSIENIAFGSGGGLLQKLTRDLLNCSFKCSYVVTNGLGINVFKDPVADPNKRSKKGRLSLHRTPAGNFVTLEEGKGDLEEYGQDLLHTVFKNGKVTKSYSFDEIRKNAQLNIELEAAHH
How it was run: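 Inhibition of E. coli-expressed His-tagged human NAMPT, measured as NMN formation by mass spectrometry after a 30 min room-temperature reaction containing 1 μM NAM, 100 μM PRPP and 2.5 mM ATP.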

A2780 cells = experiment: In-vitro cell proliferation assay (SRB), A2780 cells; assay type: cell-based; settings: Homo sapiens, A2780, 72 h, A2780 cells, 72 hours, read-out: A2780 IC50
How it was run: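 Proliferation is assessed by sulforhodamine B staining following a 72-hour incubation with compound dilutions containing 0.1% DMSO.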

With `CC(C)CNC(=O)c1cccc(S(=O)(=O)c2ccc(CNC(=O)c3cc4ccncc4s3)cc2)c1` [N-{[4-({3-[(2-methylpropyl)carbamoyl]benzene}sulfonyl)phenyl]methyl}thieno[2,3-c]pyridine-2-carboxamide] the pIC50 (NAMPT; NAMPT enzymatic assay) was 8.28 and the pIC50 (A2780 cells; SRB) was 7.84.

`O=C(NCc1ccc(S(=O)(=O)c2cccc3cccnc23)cc1)c1cnc2nccn2c1` [N-{[4-(quinoline-8-sulfonyl)phenyl]methyl}imidazo[1,2-a]pyrimidine-6-carboxamide] showed a pIC50 (NAMPT; NAMPT enzymatic assay) of 8.52 and a pIC50 (A2780 cells; SRB) of 7.56.

`COc1cccc(S(=O)(=O)c2ccc(CNC(=O)c3cc4ccncc4s3)cc2)c1OC` [N-({4-[(2,3-dimethoxybenzene)sulfonyl]phenyl}methyl)thieno[2,3-c]pyridine-2-carboxamide] gave a pIC50 (NAMPT; NAMPT enzymatic assay) of 8.05 and a pIC50 (A2780 cells; SRB) of 8.47.

Molecule `CCOc1cc(F)ccc1S(=O)(=O)c1ccc(CNC(=O)c2cc3ccncc3o2)cc1` has a pIC50 (NAMPT; NAMPT enzymatic reaction) of 8.11 and a pIC50 (A2780 cells; SRB) of 8.16.

For `O=C(NCc1ccc(S(=O)(=O)c2cccc(OC(F)(F)F)c2F)cc1)c1cc2ccncc2s1`, the pIC50 (NAMPT; NAMPT enzymatic assay) was 8.01 and the pIC50 (A2780 cells; SRB) was 7.88.

Work on `CCOc1ccc(S(=O)(=O)c2ccc(CNC(=O)c3cnc4[nH]ncc4c3)cc2)c(C)c1` yielded a pIC50 (NAMPT; NAMPT enzymatic reaction) of 6.97 and a pIC50 (A2780 cells; SRB) of 7.18.

Work on `CCc1cccc(S(=O)(=O)c2ccc(CNC(=O)c3cc4ccncc4o3)cc2)c1` [N-({4-[(3-ethylbenzene)sulfonyl]phenyl}methyl)furo[2,3-c]pyridine-2-carboxamide] yielded a pIC50 (NAMPT; NAMPT enzymatic reaction) of 8.06 and a pIC50 (A2780 cells; SRB) of 8.19.

Molecule `O=C(NCc1ccc(S(=O)(=O)c2cccnc2N2CCOCC2)cc1)c1cc2ccncc2o1` [N-({4-[2-(morpholin-4-yl)pyridine-3-sulfonyl]phenyl}methyl)furo[2,3-c]pyridine-2-carboxamide] has a pIC50 (NAMPT; NAMPT enzymatic assay) of 7.49 and a pIC50 (A2780 cells; SRB) of 7.22.

For `O=C(NCc1cccc(S(=O)(=O)c2ccccc2)c1)c1cc2cnccc2[nH]1` [N-{[3-(benzenesulfonyl)phenyl]methyl}-1H-pyrrolo[3,2-c]pyridine-2-carboxamide], the pIC50 (NAMPT; NAMPT enzymatic reaction) was under 4.52 and the pIC50 (A2780 cells; SRB assay) was under 4.52.

`O=C(NCc1ccc(S(=O)(=O)c2ccc(C(F)(F)F)c(F)c2)cc1)c1cc2ccncc2s1` showed a pIC50 (NAMPT; NAMPT enzymatic assay) of 8.06 and a pIC50 (A2780 cells; SRB) of 8.14.

Work on `CCOc1cc(S(=O)(=O)c2ccc(CNC(=O)c3cnc4nccn4c3)cc2)ccc1F` [N-({4-[(3-ethoxy-4-fluorobenzene)sulfonyl]phenyl}methyl)imidazo[1,2-a]pyrimidine-6-carboxamide] yielded a pIC50 (NAMPT; NAMPT enzymatic reaction) of 9.52 and a pIC50 (A2780 cells; SRB) of 8.11.

Work on `Cc1ccc(F)c(S(=O)(=O)c2ccc(CNC(=O)c3cnc4nccn4c3)cc2)c1` yielded a pIC50 (NAMPT; NAMPT enzymatic reaction) of 8.17 and a pIC50 (A2780 cells; SRB) of 7.56.

`Cc1nc(C)c(S(=O)(=O)c2ccc(CNC(=O)c3cnc4nccn4c3)cc2)s1` [N-{[4-(dimethyl-1,3-thiazole-5-sulfonyl)phenyl]methyl}imidazo[1,2-a]pyrimidine-6-carboxamide] was tested, and the pIC50 (NAMPT; NAMPT enzymatic assay) was 8.43 and the pIC50 (A2780 cells; SRB) was 7.31.

`O=C(NCc1ccc(S(=O)(=O)c2cncc(N3CCCC3)c2)cc1)c1cc2cnccc2[nH]1` [N-({4-[5-(pyrrolidin-1-yl)pyridine-3-sulfonyl]phenyl}methyl)-1H-pyrrolo[3,2-c]pyridine-2-carboxamide] was tested, and the pIC50 (NAMPT; NAMPT enzymatic assay) was 7.86 and the pIC50 (A2780 cells; SRB) was 8.70.

Work on `COc1cc(S(=O)(=O)c2ccc(CNC(=O)c3cc4ccncc4o3)cc2)ccc1Cl` [N-({4-[(4-chloro-3-methoxybenzene)sulfonyl]phenyl}methyl)furo[2,3-c]pyridine-2-carboxamide] yielded a pIC50 (NAMPT; NAMPT enzymatic reaction) of 8.23 and a pIC50 (A2780 cells; SRB) of 8.22.

Molecule `Cc1cc(C)c(S(=O)(=O)c2ccc(CNC(=O)c3ccc4nccn4c3)cc2)cc1C` [N-({4-[(2,4,5-trimethylbenzene)sulfonyl]phenyl}methyl)imidazo[1,2-a]pyridine-6-carboxamide] has a pIC50 (NAMPT; NAMPT enzymatic reaction) of 8.03 and a pIC50 (A2780 cells; SRB) of 7.85.

`O=C(NCc1ccc(S(=O)(=O)c2cccc(N3CCCCC3)c2)cc1)c1cc2cnccc2[nH]1` was tested, and the pIC50 (NAMPT; NAMPT enzymatic assay) was 7.84 and the pIC50 (A2780 cells; SRB) was 8.48.

`COc1ccc(S(=O)(=O)c2ccc(CNC(=O)c3cnc4[nH]ncc4c3)cc2)cc1OC` showed a pIC50 (NAMPT; NAMPT enzymatic reaction) of 7.69 and a pIC50 (A2780 cells; SRB) of 8.25.

Work on `Cc1ccc(S(=O)(=O)c2ccc(CNC(=O)c3cc4ccncc4o3)cc2)cc1F` yielded a pIC50 (NAMPT; NAMPT enzymatic reaction) of 7.85 and a pIC50 (A2780 cells; SRB) of 8.48.

In the case of `COc1ccc(F)c(S(=O)(=O)c2ccc(CNC(=O)c3cc4ccncc4s3)cc2)c1`, the pIC50 (NAMPT; NAMPT enzymatic reaction) was 8.64 and the pIC50 (A2780 cells; SRB) was 7.89.

Work on `O=C(NCc1ccc(S(=O)(=O)c2cccc(F)c2F)cc1)c1cnc2[nH]ncc2c1` yielded a pIC50 (NAMPT; NAMPT enzymatic reaction) of 7.09 and a pIC50 (A2780 cells; SRB) of 6.56.

For `COc1cc(C(F)(F)F)ccc1S(=O)(=O)c1ccc(CNC(=O)c2cnc3nccn3c2)cc1`, the pIC50 (NAMPT; NAMPT enzymatic assay) was 8.36 and the pIC50 (A2780 cells; SRB) was 7.65.

With `O=C(NCc1ccc(S(=O)(=O)c2cc(F)ccc2CO)cc1)c1cc2ccncc2o1` [N-[(4-{[5-fluoro-2-(hydroxymethyl)benzene]sulfonyl}phenyl)methyl]furo[2,3-c]pyridine-2-carboxamide] the pIC50 (NAMPT; NAMPT enzymatic assay) was 7.64 and the pIC50 (A2780 cells; SRB) was 7.17.
